Laboratory results: ChEMBL document CHEMBL1156829 (Proc Natl Acad Sci U S A, 2008)

How the values were obtained:
[1] = tested on: Plasmodium falciparum; experiment: NOVARTIS: Inhibition of Plasmodium falciparum W2 (drug-resistant) proliferation in erythrocyte-based infection assay; type: functional, organism-based; settings: read-out: EC50
[2] = tested on: Plasmodium falciparum; experiment: NOVARTIS: Inhibition of Plasmodium falciparum 3D7 (drug-susceptible) proliferation in erythrocyte-based infection assay; type: functional, organism-based
[3] = NOVARTIS: Cytotoxicity against human hepatocellular carcinoma cell line (Huh7); type: toxicity, cell-based, Huh-7; settings: Huh7 cells (hepatocellular carcinoma cell line)

Row | Compound | EC50 ([1]; Plasmodium falciparum, W2) [nM] | EC50 ([2]; Plasmodium falciparum, 3D7) [nM] | CC50 [3] [µM] | EC50 [1] [nM] | EC50 [2] [nM]
1 | C=CCN1Cc2ccc(C(=O)NCc3ccccc3)cc2N=C1c1ccc(F)cc1 | < 14.2 | > 1250 | > 12.6 | – | –
2 | Clc1ccc(CNCCCn2ccnc2)cc1Cl | > 269 | > 1250 | > 10 | – | –
3 | CCCOC(=O)C1=C(C)NC2=C(C(=O)CC(c3ccc(Cl)cc3)C2)C1c1ccccc1F (centres undefined) | 18.6 | 254 | > 100 | – | –
4 | COc1ccc(OC)c(-c2ccc(O)c(CN3CCC(c4ccccc4)CC3)c2)c1 | 9.12 | 508 | > 100 | – | –
5 | COc1ccc(C2CC(=O)C3=C(C2)NC(C)=C(C(=O)OC2CCCC2)C3c2ccccc2)cc1 (centres undefined) | 33.5 | 124 | > 100 | – | –
6 | COc1ccc(-c2cn(-c3ccc(OC)cc3)c(SCC(=O)Nc3ccccc3)n2)cc1 | > 11200 | > 11200 | > 100 | – | –
7 | CCN1C(=O)N(CCC(C)C)C2(CCN(Cc3cc(Cl)ccc3O)CC2)C1=O | 102 | 348 | > 100 | – | –
8 | Cc1cccc(N(C)c2ccnc3c(-c4cccc(C(N)=O)c4)cnn23)c1 | > 1250 | > 843 | > 10 | – | –
9 | COc1cc(OC)cc(C(=O)N2CCN(c3ccccn3)CC2)c1 | > 1130 | > 1250 | > 10 | – | –
10 | C[N+]1(CC(=O)NNc2c3ccccc3nc3ccccc23)CCOCC1 | 364 | 637 | > 100 | – | –
11 | CCN1CCN(C(=O)Nc2ccc(Cc3ccc(NC(=O)N4CCN(CC)CC4)cc3)cc2)CC1 | 1720 | 2390 | 62 | – | –
12 | Cc1cccc(N2C(=O)C3C(C2=O)C2(c4ccccc4)C(=O)C3(c3ccccc3)C(c3ccc4c(c3)OCO4)=C2c2ccc3c(c2)OCO3)c1 (centres undefined) | 508 | 1070 | > 100 | – | –
13 | COc1cccc(-c2cc(N=C(NCc3ccco3)SC)n[nH]2)c1 | 2870 | > 11300 | 70.4 | – | –
14 | NNc1nc(NCc2ccccc2)nc(N2CCOCC2)n1 | 89.4 | 71.8 | > 10 | – | –
15 | O=[N+]([O-])c1cc(Cl)c(N2CCOCC2)cc1N1CCOCC1 | 515 | 1040 | > 100 | – | –
16 | NS(=O)(=O)c1ccc(CCNC(=O)C=Cc2ccc3c(c2)OCO3)cc1 | 3390 | > 7760 | > 100 | – | –
17 | COc1ccc(-n2cnc3cc(NCc4nc5ccccc5n4C)ccc32)cc1 | 906 | 912 | 56.8 | – | –
18 | O=C1c2ccccc2-[n+]2ccc3c([nH]c4ccccc43)c21 [FASCAPLYSIN CHLORIDE] | 46.4 | 74.9 | 0.589 | – | –
19 | CCCCCOC(=O)C1=C(C)NC2=C(C(=O)CCC2)C1c1ccc(OC)c(Br)c1 (centres undefined) | 650 | 615 | > 100 | – | –
20 | CCCCC(=O)NC(c1ccccc1)c1ccc2cccnc2c1O (centres undefined) | 239 | 387 | > 100 | – | –
21 | Fc1ccc(Nc2nc(NCc3ccccc3)c3ccccc3n2)cc1 | 58.6 | 75.5 | 8.87 | – | –
22 | CC[n+]1c(C=C2C=C(C)CC(C)C2)sc2ccccc21 (centres undefined) | 300 | 326 | > 100 | – | –
23 | CCOCc1nnc(NC(=O)COc2ccc(Cl)cc2Cl)s1 | 6420 | > 12500 | > 100 | – | –

Row | Compound | EC50 ([1]; Plasmodium falciparum, W2) [nM] | EC50 ([2]; Plasmodium falciparum, 3D7) [nM] | CC50 [3] [µM] | EC50 [1] [nM] | EC50 [2] [nM]
24 | COc1ccc(S(=O)(=O)N=C2C=C(Nc3ccccc3OC)C(=O)c3ccccc32)cc1 | 154 | 338 | 20.1 | – | –
25 | COCCNc1cc(-c2ccccn2)nc(-c2ccccn2)n1 | 624 | 440 | > 10 | – | –
26 | CC(C)(C)c1ccc(-c2nc(C34CC5CC(CC(C5)C3)C4)cs2)cc1 | 1650 | > 12500 | > 100 | – | –
27 | O=C(Nc1ccncc1)Nc1cccc(NC(=O)Nc2ccncc2)c1 | 2230 | > 1250 | > 10 | – | –
28 | O=C1/C(=C\c2ccccc2)SC(=Nc2ccccc2)N1C1CCCCC1 | 545 | 348 | > 100 | – | –
29 | CCCCCN(C(=O)c1ccc(Cl)cc1)C(CC)c1nc2ccccc2c(=O)n1-c1ccccc1OC (centres undefined) | 1050 | 878 | > 8.82 | – | –
30 | COc1ccc(NC(=O)C2c3ccccc3C(=O)N(CC(C)C)C2c2cccs2)cc1OC (centres undefined) | 68.8 | 76 | > 100 | – | –
31 | Cc1ccccc1/C=C1\SC(=Nc2ccccc2)NC1=O | > 12500 | 1060 | > 100 | – | –
32 | O=C(C[n+]1ccccc1)NN=Cc1ccc(Cl)c(Cl)c1 | 3380 | 2840 | > 100 | – | –
33 | CCOC(=O)N1CCN(C(=O)C(NC(=O)C2CCC(C)CC2)C(C)C)CC1 (centres undefined) | > 755 | > 1670 | > 10 | – | –
34 | CC(C)CC1=Nc2cc(C(=O)NCc3ccccc3)ccc2CN1Cc1cccnc1 | 26.7 | > 1250 | > 10 | – | –
35 | COc1ccc(CCNc2nc(NCCCn3ccnc3)ncc2C(=O)NCC(C)C)cc1OC | > 1250 | 563 | > 6.78 | – | –
36 | COc1ccc(Nc2nc(NN=Cc3cccc(I)c3)nc(Nc3ccc([N+](=O)[O-])cc3)n2)cc1 | 454 | 305 | > 11.7 | – | –
37 | CCCCCN(C(=O)COCc1ccccc1)C(CC)c1nc2ccccc2c(=O)n1-c1cccc(Cl)c1 (centres undefined) | 847 | 411 | > 10 | – | –
38 | Cc1oc(-c2cccs2)nc1CN1CCC(CO)(CCOc2ccccc2)CC1 | 2350 | 8470 | > 100 | – | –
39 | COc1ccc(OC)c(-c2ccc(O)c(CNCCc3ccc(F)cc3)c2)c1 | < 23.2 | 1050 | > 10 | – | –
40 | CC(C)CNC(=O)c1cnc(NCCCN2CCCCC2C)nc1NCC(C)C (centres undefined) | 1460 | 344 | > 10 | – | –
41 | CCCCCCCCCCOC(=O)Cn1c(C)[n+](C)c2ccccc21 | 644 | > 12500 | 58.1 | – | –
42 | NC1=NC(c2ccccc2)N(c2ccccc2)C(N)=N1 (centres undefined) | 204 | 82.3 | > 100 | – | –
43 | Cc1cc(NCCc2ccccc2)nc2cc(O)ccc12 | 69.5 | 377 | 29.5 | – | –
44 | CCCSc1nc(N)c2c3c(sc2n1)CN(CCC)CC3 | 1230 | 1420 | > 100 | – | –
45 | Cc1ncc([N+](=O)[O-])n1CCOC(=O)NC(Nc1ccc(Br)cc1)C(Cl)(Cl)Cl (centres undefined) | 152 | 229 | > 100 | – | –
46 | COC(=O)C1N(C(=O)OC)c2ccc([N+](=O)[O-])cc2S1(=O)=O (centres undefined) | > 1280 | 362 | > 10 | – | –

Row | Compound | EC50 ([1]; Plasmodium falciparum, W2) [nM] | EC50 ([2]; Plasmodium falciparum, 3D7) [nM] | CC50 [3] [µM] | EC50 [1] [nM] | EC50 [2] [nM]
47 | COc1ccc(/C=C/C(=O)Nc2ccncc2)cc1OC | 828 | 593 | > 10 | – | –
48 | CCN(CC)S(=O)(=O)c1ccc(-c2csc(Nc3ccc(C)c(C)c3)n2)cc1 | > 1170 | > 2100 | > 100 | – | –
49 | Cc1ccnc(NC(c2ccncc2)c2ccc3cccnc3c2O)c1 (centres undefined) | 357 | 1000 | > 100 | – | –
50 | CC(=O)N(C1=C(N(C)C)C(=O)c2ccccc2C1=O)c1cccc(F)c1 | 10.6 | 13.5 | 1.36 | – | –
51 | CCC(=O)OC(C(C)C(=O)O)C(C)C1OC2(CCC(C)(C3CCC(C)(C4OC(C5OC(O)(CO)C(C)CC5C)CC4C)O3)O2)CC(O)C1C (centres undefined) | 387 | 379 | > 6.25 | – | –
52 | CCN1CCC(NCCC(c2ccccc2)c2ccccc2)CC1 | 66 | 280 | 3.61 | – | –
53 | O=[N+]([O-])c1ccc2nc(Nc3ccc(Cl)c(Cl)c3)c(Nc3ccc(Cl)c(Cl)c3)nc2c1 | 7040 | 7230 | > 85.4 | – | –
54 | CCN1/C(=C/c2ccc3ccccc3[n+]2CC)Sc2sc3ccccc3c21 | 134 | 99.2 | 4.77 | – | –
55 | Cc1ccc(N=C2C(=O)Nc3ccc(C)c(Br)c32)c(O)c1 | > 1250 | > 963 | > 10 | – | –
56 | O=C(CNCCc1ccccc1)NC(c1ccccc1)c1ccccc1 | 623 | 5960 | 45.4 | – | –
57 | O=C(CCl)Nc1ccc(CN2CCCCC2)cc1 | 911 | 976 | 34.1 | – | –
58 | O=C(O)C(Cc1ccc([N+](=O)[O-])cc1)NS(=O)(=O)c1ccc(OC(F)(F)F)cc1 (centres undefined) | 3.29 | 580 | > 10 | – | –
59 | CC1=CC(=O)OC[C@]23C[C@H](O)C(C)=C[C@H]2O[C@@H]2C[C@@H](OC(=O)C=CC=CC(=O)OCC1)[C@@]3(C)[C@]21CO1 | – | – | 0.0837 | 1.77 | 2.44
60 | Cc1ccccc1OCc1nnc(SCC(=O)Nc2ccc([N+](=O)[O-])cc2)n1C | 26.7 | > 1250 | > 10 | – | –
61 | CCC(SC1=Nc2ccccc2C2=NC(C(C)C)C(=O)N12)C(=O)Nc1cccc(C)c1 (centres undefined) | 2400 | 7020 | > 100 | – | –
62 | c1ccc(CN2CCC(NCc3c[nH]c4ccccc34)CC2)cc1 | 120 | 208 | > 10 | – | –
63 | COCCNC(=O)[C@@H]1C[C@@H](Sc2nc3ccccc3[nH]2)CN1Cc1ccc2ccccc2c1 | 135 | 638 | > 100 | – | –
64 | CC(C)(C)c1cc(Br)cc(C=NNc2ccc([N+](=O)[O-])cc2)c1O | 761 | > 1210 | > 10 | – | –
65 | CN(C)C(=O)C1C2NC(=S)N(c3ccccc3)C1(C)Oc1ccccc12 (centres undefined) | 483 | 1750 | > 10 | – | –
66 | CC(=O)OCC(=O)[C@@]1(O)CCC2C3CCC4=CC(=O)CC[C@]4(C)C3[C@@H](O)C[C@@]21C (some centres undefined) | < 23 | > 1250 | > 10 | – | –
67 | COc1ccc(NC(=O)N(CCCNS(=O)(=O)c2ccc([N+](=O)[O-])cc2)c2ccc(Oc3ccccc3)cc2)cc1 | 114 | 733 | > 7.77 | – | –
68 | CCCN1CCC(N2C[C@@H](NC3CCCCCCC3)C[C@H]2C(=O)NCCc2ccc3c(c2)OCO3)CC1 | > 1300 | > 1360 | > 10 | – | –
